Test results: PubChem BioAssay (NCI)
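Method: 48-hour compound exposure of cells in 96-well plates, five concentrations, linear interpolation of endpoints. Abbreviation: GI50, concentration required for 50% inhibition of growth. TGI is the concentration that stops growth completely.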

Experiments:
Test in all cases: DTP human tumour cell line panel, 48 h
SF-268 CNS = tested on: SF-268 CNS
HCT-15 colon = tested on: HCT-15 colon
OVCAR-3 ovarian = tested on: OVCAR-3 ovarian
MDA-MB-435 = tested on: MDA-MB-435
HOP-92 NSCLC = tested on: HOP-92 NSCLC
TK-10 renal = tested on: TK-10 renal
SK-MEL-2 melanoma = tested on: SK-MEL-2 melanoma
EKVX NSCLC = tested on: EKVX NSCLC
SF-295 CNS = tested on: SF-295 CNS
A549 NSCLC = tested on: A549 NSCLC
786-0 renal = tested on: 786-0 renal
NCI-H522 lung = tested on: NCI-H522 lung
HT29 colon = tested on: HT29 colon
SK-MEL-28 melanoma = tested on: SK-MEL-28 melanoma
M14 melanoma = tested on: M14 melanoma
K-562 leukemia = tested on: K-562 leukemia
SNB-19 CNS = tested on: SNB-19 CNS
BT-549 breast = tested on: BT-549 breast
UACC-257 melanoma = tested on: UACC-257 melanoma
HOP-62 NSCLC = tested on: HOP-62 NSCLC
HL-60(TB) leukemia = tested on: HL-60(TB) leukemia
RPMI-8226 leukemia = tested on: RPMI-8226 leukemia
LOX IMVI melanoma = tested on: LOX IMVI melanoma
RXF 393 renal = tested on: RXF 393 renal
CCRF-CEM leukemia = tested on: CCRF-CEM leukemia
NCI-H23 lung = tested on: NCI-H23 lung
DU-145 prostate = tested on: DU-145 prostate
SK-OV-3 ovarian = tested on: SK-OV-3 ovarian
NCI-H226 lung = tested on: NCI-H226 lung
MCF7 breast = tested on: MCF7 breast
HCC-2998 colon = tested on: HCC-2998 colon
SK-MEL-5 melanoma = tested on: SK-MEL-5 melanoma
OVCAR-4 ovarian = tested on: OVCAR-4 ovarian
IGROV1 ovarian = tested on: IGROV1 ovarian
MALME-3M melanoma = tested on: MALME-3M melanoma
OVCAR-8 ovarian = tested on: OVCAR-8 ovarian
UACC-62 melanoma = tested on: UACC-62 melanoma
SN12C renal = tested on: SN12C renal
SF-539 CNS = tested on: SF-539 CNS
SR leukemia = tested on: SR leukemia
SW-620 colon = tested on: SW-620 colon
SNB-75 CNS = tested on: SNB-75 CNS
U251 CNS = tested on: U251 CNS
MOLT-4 leukemia = tested on: MOLT-4 leukemia
PC-3 prostate = tested on: PC-3 prostate
A498 renal = tested on: A498 renal
NCI/ADR-RES ovarian = tested on: NCI/ADR-RES ovarian
OVCAR-5 ovarian = tested on: OVCAR-5 ovarian
T-47D breast = tested on: T-47D breast
MDA-MB-231 breast = tested on: MDA-MB-231 breast
COLO 205 colon = tested on: COLO 205 colon
HS 578T breast = tested on: HS 578T breast
KM12 colon = tested on: KM12 colon
NCI-H460 lung = tested on: NCI-H460 lung
UO-31 renal = tested on: UO-31 renal
HCT-116 colon = tested on: HCT-116 colon
CAKI-1 renal = tested on: CAKI-1 renal
ACHN renal = tested on: ACHN renal

## Cn1ncc2cc(-c3cnc(N)c(Cl)c3N3CCC4(CCNC4=O)CC3)ccc21
SF-268 CNS
  GI50: 21.3 µM
  TGI: > 100 µM
HCT-15 colon
  GI50: 22.7 µM
  TGI: > 100 µM
OVCAR-3 ovarian
  GI50: 42.9 µM
  TGI: > 100 µM
MDA-MB-435
  GI50: 45.4 µM
  TGI: > 100 µM
HOP-92 NSCLC
  GI50: 13 µM
  TGI: 82.4 µM
TK-10 renal
  GI50: 36.1 µM
  TGI: > 100 µM
SK-MEL-2 melanoma
  GI50: 39.8 µM
  TGI: > 100 µM
EKVX NSCLC
  GI50: 12.9 µM
  TGI: > 100 µM
SF-295 CNS
  GI50: 31.2 µM
  TGI: > 100 µM
A549 NSCLC
  GI50: > 100 µM
  TGI: > 100 µM
786-0 renal
  GI50: 11.2 µM
  TGI: > 100 µM
NCI-H522 lung
  GI50: 60.7 µM
  TGI: > 100 µM
HT29 colon
  GI50: 46.2 µM
  TGI: > 100 µM
SK-MEL-28 melanoma
  GI50: 33 µM
  TGI: > 100 µM
M14 melanoma
  GI50: 41.4 µM
  TGI: > 100 µM
K-562 leukemia
  GI50: 45.5 µM
  TGI: > 100 µM
SNB-19 CNS
  GI50: 94.2 µM
  TGI: > 100 µM
BT-549 breast
  GI50: 29.2 µM
  TGI: > 100 µM
UACC-257 melanoma
  GI50: 31.2 µM
  TGI: 66.1 µM
HOP-62 NSCLC
  GI50: 21.6 µM
  TGI: > 100 µM
HL-60(TB) leukemia
  GI50: 16.8 µM
  TGI: 42.6 µM
RPMI-8226 leukemia
  GI50: 16 µM
  TGI: 95.5 µM
LOX IMVI melanoma
  GI50: 33.1 µM
  TGI: > 100 µM
RXF 393 renal
  GI50: 8.11 µM
  TGI: 54.3 µM
CCRF-CEM leukemia
  GI50: 36.9 µM
  TGI: > 100 µM
NCI-H23 lung
  GI50: 46.7 µM
  TGI: > 100 µM
DU-145 prostate
  GI50: 52.1 µM
  TGI: > 100 µM
SK-OV-3 ovarian
  GI50: 31.5 µM
  TGI: > 100 µM
NCI-H226 lung
  GI50: 38.1 µM
  TGI: > 100 µM
MCF7 breast
  GI50: 24.6 µM
  TGI: > 100 µM
HCC-2998 colon
  GI50: > 100 µM
  TGI: > 100 µM
SK-MEL-5 melanoma
  GI50: 11.3 µM
  TGI: 23.8 µM
OVCAR-4 ovarian
  GI50: 38.9 µM
  TGI: > 100 µM
IGROV1 ovarian
  GI50: 14.8 µM
  TGI: > 100 µM
MALME-3M melanoma
  GI50: 37.5 µM
  TGI: > 100 µM
OVCAR-8 ovarian
  GI50: 39.1 µM
  TGI: > 100 µM
UACC-62 melanoma
  GI50: 30.7 µM
  TGI: > 100 µM
SN12C renal
  GI50: 32.7 µM
  TGI: > 100 µM
SF-539 CNS
  GI50: 14.1 µM
  TGI: > 100 µM
SR leukemia
  GI50: 6.4 µM
  TGI: 57.2 µM
SW-620 colon
  GI50: 21.3 µM
  TGI: > 100 µM
SNB-75 CNS
  GI50: 17 µM
  TGI: 77.8 µM
U251 CNS
  GI50: 43.7 µM
  TGI: > 100 µM
MOLT-4 leukemia
  GI50: 20.7 µM
  TGI: > 100 µM
PC-3 prostate
  GI50: 42.1 µM
  TGI: > 100 µM
A498 renal
  GI50: 11.2 µM
  TGI: 32.4 µM
NCI/ADR-RES ovarian
  GI50: 32.8 µM
  TGI: > 100 µM
OVCAR-5 ovarian
  GI50: > 100 µM
  TGI: > 100 µM
T-47D breast
  GI50: 15.7 µM
  TGI: 84.2 µM
MDA-MB-231 breast
  GI50: 23 µM
  TGI: 86.3 µM
COLO 205 colon
  GI50: 11.9 µM
  TGI: > 100 µM
HS 578T breast
  GI50: 19.8 µM
  TGI: 89.5 µM
KM12 colon
  GI50: 32.3 µM
  TGI: > 100 µM
NCI-H460 lung
  GI50: 59 µM
  TGI: > 100 µM
UO-31 renal
  GI50: 17.7 µM
  TGI: > 100 µM
HCT-116 colon
  GI50: 37.4 µM
  TGI: > 100 µM

## N#CC(c1ccc(O)cc1)N1CCN(C(C#N)c2ccc(O)cc2)CC1 (centres undefined)
SF-268 CNS
  TGI: 64.4 µM
HCT-15 colon
  TGI: > 100 µM
OVCAR-3 ovarian
  TGI: > 100 µM
MDA-MB-435
  TGI: > 100 µM
HOP-92 NSCLC
  TGI: 60.1 µM
TK-10 renal
  TGI: > 100 µM
SK-MEL-2 melanoma
  TGI: > 100 µM
EKVX NSCLC
  TGI: > 76.1 µM
SF-295 CNS
  TGI: > 100 µM
A549 NSCLC
  TGI: > 100 µM
786-0 renal
  TGI: > 100 µM
NCI-H522 lung
  TGI: > 100 µM
HT29 colon
  TGI: > 100 µM
SK-MEL-28 melanoma
  TGI: > 100 µM
M14 melanoma
  TGI: > 100 µM
CAKI-1 renal
  TGI: > 100 µM
K-562 leukemia
  TGI: > 100 µM
SNB-19 CNS
  TGI: 75.7 µM
BT-549 breast
  TGI: > 100 µM
UACC-257 melanoma
  TGI: > 100 µM
HOP-62 NSCLC
  TGI: 57.1 µM
HL-60(TB) leukemia
  TGI: > 100 µM
RPMI-8226 leukemia
  TGI: > 100 µM
LOX IMVI melanoma
  TGI: > 100 µM
RXF 393 renal
  TGI: > 92.5 µM
CCRF-CEM leukemia
  TGI: > 100 µM
NCI-H23 lung
  TGI: > 100 µM
DU-145 prostate
  TGI: > 91.5 µM
SK-OV-3 ovarian
  TGI: > 100 µM
NCI-H226 lung
  TGI: > 77.6 µM
MCF7 breast
  TGI: > 100 µM
HCC-2998 colon
  TGI: > 100 µM
ACHN renal
  TGI: > 100 µM
SK-MEL-5 melanoma
  TGI: > 100 µM
OVCAR-4 ovarian
  TGI: > 100 µM
IGROV1 ovarian
  TGI: > 100 µM
MALME-3M melanoma
  TGI: > 100 µM
OVCAR-8 ovarian
  TGI: > 53.1 µM
UACC-62 melanoma
  TGI: > 100 µM
SN12C renal
  TGI: > 100 µM
SF-539 CNS
  TGI: > 100 µM
SR leukemia
  TGI: > 100 µM
SW-620 colon
  TGI: > 100 µM
SNB-75 CNS
  TGI: 48.1 µM
U251 CNS
  TGI: 51.9 µM
MOLT-4 leukemia
  TGI: > 100 µM
PC-3 prostate
  TGI: > 100 µM
A498 renal
  TGI: > 100 µM
NCI/ADR-RES ovarian
  TGI: > 100 µM
OVCAR-5 ovarian
  TGI: > 100 µM
T-47D breast
  TGI: > 82.9 µM
MDA-MB-231 breast
  TGI: 55.8 µM
COLO 205 colon
  TGI: > 100 µM
HS 578T breast
  TGI: > 100 µM
KM12 colon
  TGI: > 100 µM
UO-31 renal
  TGI: > 100 µM
HCT-116 colon
  TGI: > 100 µM
